In patent US20170114093A1, “Methods of Treatment and Prevention of Disease by Arginine-rich Compositions that Induce Cytoprotection and Neuroprotection” (priority 2015, published 2017):
“Also recorded” adds a separate entry of the source.

Key:
[1] = test system: SAPK/JNK; experiment: Western blot of phospho-SAPK/JNK (cell death signaling) in OGD-treated primary neuronal cultures; type: cell-based, rat; conditions: after OGD
Description: JNK signaling is widely considered to be an indicator of cell death signaling.
Dissociated primary neuronal cell cultures treated in the same manner as indicated in Example 2 were collected and their cells lysed. Cellular proteins were precipitated and denatured for immunohistochemical analysis by Western Blot. Phospho-SAPK/JNK ([…]) antibody detects endogenous levels of p46 and p54 SAPK/JNK dually phosphorylated at threonine 183 and tyrosine 185. Levels of The stress-activated protein kinase/Jun-amino-terminal kinase SAPK/JNK are widely considered to be molecular sequelae of the activation of cell death pathways that lead to apoptosis.

[2] = test system: primary rat cortical neurons; experiment: Oxygen glucose deprivation (OGD, 90 min) of primary neuronal cultures, cell viability by MTT reduction; type: cell-based; conditions: for level of protection from OGD, compared with Compound 4: 90 min OGD; for protection of cortical rat neurons from the impact of OGD (cell viability): pre-incubation 30 min before 90 min OGD, MTT
Experimental: FIGS. 1 and 2 are histograms showing the cell viability of primary rat cortical neurons that had been exposed to ninety (90) minutes oxygen glucose deprivation. Pre-incubation of an arginine-rich polypeptide [RRRRRRRRR (SEQ ID: 4)]
Dissociated primary neuronal cell cultures were prepared from rat brains at 37° C. in a humidified atmosphere containing 5% CO2 and […] and grown to confluence in glucose-containing media. Indicated compounds were applied thirty (30) minutes before cultures were placed in an environment of oxygen glucose deprivation (OGD). OGD was achieved using glucose-free media and a humidified atmosphere containing 5% CO2 and 95% N2. OGD was continued for ninety (90) minutes and terminated by return to baseline conditions with glucose and O2 restored. Reduction of 3-(4,5-dimethyl-2-thiazolyl)-2,5-diphenyltetrazolium bromide (MTT) by cellular dehydrogenases measured mitochondrial activity and cell health. […] This model is a dissociated cell preparation, therefore vasculature is absent, therefore the activity of Compound 4 (SEQ ID NO: 4), an inventive Arginine rich polypeptide, is shown to be independent of changes to vascular tone and indicates protection from a novel mechanism of action.

C[C@@H]([C@@H](O)c1ccc(O)cc1)N1CCC(O)(c2ccccc2)CC1 [CP 101 606]
level of JNK cell death signaling, compared with Compound 4 2 μM ([1]; 10 μM): comparable | level of protection from OGD, compared with Compound 4 ([2]; 10 μM): comparable

C[C@H](NC(c1cccc2[nH]c(=O)c(=O)[nH]c12)P(=O)(O)O)c1ccc(Br)cc1 (some centres unmarked) [NVPAAM077]
level of JNK cell death signaling, compared with Compound 4 2 μM ([1]; 100 nM): comparable | level of protection from OGD, compared with Compound 4 ([2]; 100 nM): comparable

CCRRRRRRR [Control peptide; cysteine-arginine peptide of the kind claimed in WO2013158739]
protection of cortical rat neurons from the impact of OGD (cell viability) ([2]; 2 μM): no significant neuroprotection; also recorded: no significant neuroprotective effect | protection of cortical rat neurons from the impact of OGD (cell viability) ([2]; 2 μM, listed as ccrrrrrrr): no significant neuroprotection; also recorded: no significant neuroprotective effect | protection of cortical rat neurons from the impact of OGD (cell viability) ([2]; 10 μM): no significant neuroprotection; also recorded: no significant neuroprotective effect | protection of cortical rat neurons from the impact of OGD (cell viability) ([2]; 10 μM, listed as ccrrrrrrr): no significant neuroprotection; also recorded: no significant neuroprotective effect

RRRRRRRRR (cell penetrating peptide) [Compound 4]
p54 and p48 JNK cell death signaling (Western blot) ([1]; 2 μM, p<0.05, n=3): significantly suppressed | protection of cortical rat neurons from the impact of OGD (cell viability) ([2]; 2 μM): significant protection | protection of cortical rat neurons from the impact of OGD (cell viability) ([2]; 10 μM): significant protection
